This passage reports IC50 results from US20100076015A1, “Aminopyridine Derivatives” (VANTIA LIMITED, priority 2008, published 2010).

Structures are written as SMILES.

For the assay, the target named is T1, Human KLK1 (Homo sapiens, UniProt P06870).
T1 construct: purchased Callbiochem (Calbiochem)
T1 sequence (P06870 25-262): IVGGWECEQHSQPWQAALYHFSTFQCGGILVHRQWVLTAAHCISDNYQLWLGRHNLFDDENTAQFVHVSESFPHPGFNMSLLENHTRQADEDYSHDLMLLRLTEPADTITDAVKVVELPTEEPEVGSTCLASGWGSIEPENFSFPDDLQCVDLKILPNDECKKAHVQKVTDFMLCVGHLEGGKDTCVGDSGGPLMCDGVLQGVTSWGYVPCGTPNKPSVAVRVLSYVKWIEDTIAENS
The assay can be described thus: Determination of the IC50 for KLK1 (fluorogenic substrate H-DVal-Leu-Arg-AFC). The class given is biochemical. Conditions: 37° C. Summed up: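 Human KLK1 incubated at 37 °C with fluorogenic substrate H-DVal-Leu-Arg-AFC and a range of test compound concentrations. Residual activity was taken as initial reaction rate from absorbance change at 410 nm, and the IC50 derived from it.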
Broadly, the IC50 is the concentration that gives 50% inhibition. The low end stands for greater potency in that assay, the high end for weaker potency in that assay. On to `Cc1cc(C)c(C(=O)N[C@@H](Cc2c[nH]c3ccccc23)C(=O)NCc2ccc(N)nc2C)[nH]1` [Example 283, 3,5-Dimethyl-1H-pyrrole-2-carboxylic acid [(S)-1-[(6-amino-2-methyl-pyridin-3-ylmethyl)-carbamoyl]-2-(1H-indol-3-yl)-ethyl]-amide], for which the IC50 was 5.1 nM.

`Cc1cc(C)c(C(=O)N[C@@H](Cc2ccc(F)c(F)c2)C(=O)NCc2ccc(N)nc2C)[nH]1` [Example 284, 3,5-Dimethyl-1H-pyrrole-2-carboxylic acid [(S)-1-[(6-amino-2-methyl-pyridin-3-ylmethyl)-carbamoyl]-2-(3,4-difluoro-phenyl)-ethyl]-amide] showed a concentration for half-maximal inhibition (IC50) of 5.2 nM.

The compound `Cc1cc(C)c(C(=O)N[C@@H](Cc2ccc(F)cc2)C(=O)NCc2ccc(N)nc2C)[nH]1` [Example 285, 3,5-Dimethyl-1H-pyrrole-2-carboxylic acid [(S)-1-[(6-amino-2-methyl-pyridin-3-ylmethyl)-carbamoyl]-2-(4-fluoro-phenyl)-ethyl]-amide] registered a half-inhibitory concentration (IC50) of 6.5 nM.

For `Cc1cc[nH]c1C(=O)N[C@@H](Cc1ccc(F)c(F)c1)C(=O)NCc1ccc(N)nc1C` [Example 286, 3-Methyl-1H-pyrrole-2-carboxylic acid [(S)-1-[(6-amino-2-methyl-pyridin-3-ylmethyl)-carbamoyl]-2-(3,4-difluoro-phenyl)-ethyl]-amide], 4.3 nM corresponded to half-maximal inhibition (IC50).

Compound `Nc1ccc(CNC(=O)[C@H](Cc2ccc(F)cc2)NC(=O)c2ncc[nH]2)cn1` [Example 287, 1H-Imidazole-2-carboxylic acid [(S)-1-[(6-amino-pyridin-3-ylmethyl)-carbamoyl]-2-(4-fluoro-phenyl)-ethyl]-amide] gave an IC50 of 75.6 nM.

The compound `Nc1ccc(CNC(=O)[C@H](Cc2cccc(F)c2)NC(=O)c2ncc[nH]2)cn1` [Example 288, 1H-Imidazole-2-carboxylic acid [(S)-1-[(6-amino-pyridin-3-ylmethyl)-carbamoyl]-2-(3-fluoro-phenyl)-ethyl]-amide] had an IC50 of 93.2 nM.

`Nc1ccc(CNC(=O)[C@H](Cc2cccc3ccccc23)NC(=O)c2ncc[nH]2)cn1` [Example 289, 1H-Imidazole-2-carboxylic acid {(S)-1-[(6-amino-pyridin-3-ylmethyl)-carbamoyl]-2-naphthalen-1-yl-ethyl}-amide] showed a 50% inhibitory concentration (IC50) of 30.5 nM.

Take `Cn1ccnc1C(=O)N[C@@H](Cc1ccc(F)cc1)C(=O)NCc1ccc(N)nc1` [Example 290, 1-Methyl-1H-imidazole-2-carboxylic acid [(S)-1-[(6-amino-pyridin-3-ylmethyl)-carbamoyl]-2-(4-fluoro-phenyl)-ethyl]-amide]: the IC50 worked out at 626 nM.

Turning to `Cc1cc(C(=O)N[C@@H](Cc2ccc(F)cc2)C(=O)NCc2ccc(N)nc2)n(C)n1` [Example 291, 2,5-Dimethyl-2H-pyrazole-3-carboxylic acid [(S)-1-[(6-amino-pyridin-3-ylmethyl)-carbamoyl]-2-(4-fluoro-phenyl)-ethyl]-amide], it took 165 nM to reach half-maximal inhibition (IC50).

`Cc1ccc(-c2ccc(C(=O)N[C@@H](Cc3cccc4ccccc34)C(=O)NCc3ccc(N)nc3)[nH]2)cc1` [Example 292, 5-p-Tolyl-1H-pyrrole-2-carboxylic acid {(S)-1-[(6-amino-pyridin-3-ylmethyl)-carbamoyl]-2-naphthalen-1-yl-ethyl}-amide]: it took 31.5 nM to reach half-maximal inhibition (IC50).

`Cc1ccc(-c2ccc(C(=O)N[C@@H](Cc3csc4ccccc34)C(=O)NCc3ccc(N)nc3)[nH]2)cc1` [Example 293, 5-p-Tolyl-1H-pyrrole-2-carboxylic acid {(S)-1-[(6-amino-pyridin-3-ylmethyl)-carbamoyl]-2-benzo[b]thiophen-3-yl-ethyl}-amide] registered an IC50 of 36.3 nM.

Take `Cc1ccc(-c2ccc(C(=O)N[C@@H](Cc3ccc(F)c(F)c3)C(=O)NCc3ccc(N)nc3)[nH]2)cc1` [Example 294, 5-p-Tolyl-1H-pyrrole-2-carboxylic acid [(S)-1-[(6-amino-pyridin-3-ylmethyl)-carbamoyl]-2-(3,4-difluoro-phenyl)-ethyl]-amide]: half-maximal inhibition (IC50) required 35.6 nM.

Compound `Cc1ccc(-c2ccc(C(=O)N[C@@H](Cc3ccccc3Cl)C(=O)NCc3ccc(N)nc3)[nH]2)cc1` [Example 295, 5-p-Tolyl-1H-pyrrole-2-carboxylic acid [(S)-1-[(6-amino-pyridin-3-ylmethyl)-carbamoyl]-2-(2-chloro-phenyl)-ethyl]-amide] showed an IC50 of 192 nM.

Compound `Cc1ccc(-c2ccc(C(=O)N[C@@H](Cc3ccc(Cl)c(Cl)c3)C(=O)NCc3ccc(N)nc3)[nH]2)cc1` [Example 296, 5-p-Tolyl-1H-pyrrole-2-carboxylic acid [(S)-1-[(6-amino-pyridin-3-ylmethyl)-carbamoyl]-2-(3,4-dichloro-phenyl)-ethyl]-amide] gave an IC50 of 40.9 nM.

`Cc1ccc(-c2ccc(C(=O)N[C@@H](Cc3cccc(Cl)c3)C(=O)NCc3ccc(N)nc3)[nH]2)cc1` [Example 297, 5-p-Tolyl-1H-pyrrole-2-carboxylic acid [(S)-1-[(6-amino-pyridin-3-ylmethyl)-carbamoyl]-2-(3-chloro-phenyl)-ethyl]-amide] returned an IC50 of 40.1 nM.

`Nc1ccc(CNC(=O)[C@H](Cc2cccc3ccccc23)NC(=O)c2cc3ccccc3[nH]2)cn1` [Example 298, 1H-Indole-2-carboxylic acid {(S)-1-[(6-amino-pyridin-3-ylmethyl)-carbamoyl]-2-naphthalen-1-yl-ethyl}-amide] came in with an IC50 of 9.4 nM.

`Nc1ccc(CNC(=O)[C@H](Cc2cccc3ccccc23)NC(=O)c2nc3ccccc3[nH]2)cn1` [Example 299, 1H-Benzoimidazole-2-carboxylic acid {(S)-1-[(6-amino-pyridin-3-ylmethyl)-carbamoyl]-2-naphthalen-1-yl-ethyl}-amide] displayed an IC50 of 8.1 nM.

Compound `COc1ccc2[nH]c(C(=O)N[C@@H](Cc3cccc4ccccc34)C(=O)NCc3ccc(N)nc3)cc2c1` [Example 300, 5-Methoxy-1H-indole-2-carboxylic acid {(S)-1-[(6-amino-pyridin-3-ylmethyl)-carbamoyl]-2-naphthalen-1-yl-ethyl}-amide] came in with an IC50 of 7.4 nM.

Regarding `Nc1ccc(CNC(=O)[C@H](Cc2cccc3ccccc23)NC(=O)c2cc3cc(F)ccc3[nH]2)cn1` [Example 301, 5-Fluoro-1H-indole-2-carboxylic acid {(S)-1-[(6-amino-pyridin-3-ylmethyl)-carbamoyl]-2-naphthalen-1-yl-ethyl}-amide], the midpoint of inhibition, the IC50, lay at 11 nM.

Consider `Nc1ccc(CNC(=O)[C@H](Cc2cccc3ccccc23)NC(=O)c2cc3cc(O)ccc3[nH]2)cn1` [Example 302, 5-Hydroxy-1H-indole-2-carboxylic acid {(S)-1-[(6-amino-pyridin-3-ylmethyl)-carbamoyl]-2-naphthalen-1-yl-ethyl}-amide], for which half-maximal inhibition (IC50) was put at 7.2 nM.

As for `Cc1nc(N)ccc1CNC(=O)[C@H](Cc1cccc2ccccc12)NC(=O)c1cc2ccccc2[nH]1` [Example 303, 1H-Indole-2-carboxylic acid {(S)-1-[(6-amino-2-methyl-pyridin-3-ylmethyl)-carbamoyl]-2-naphthalen-1-yl-ethyl}-amide], 240 nM corresponded to half-maximal inhibition (IC50).

`COc1ccc2[nH]c(C(=O)N[C@@H](Cc3cccc4ccccc34)C(=O)NCc3ccc(N)nc3C)cc2c1` [Example 304, 5-Methoxy-1H-indole-2-carboxylic acid {(S)-1-[(6-amino-2-methyl-pyridin-3-ylmethyl)-carbamoyl]-2-naphthalen-1-yl-ethyl}-amide] gave an IC50 of 148 nM.

Consider `Cc1nc(N)ccc1CNC(=O)[C@H](Cc1cccc2ccccc12)NC(=O)c1cc2cc(F)ccc2[nH]1` [Example 305, 5-Fluoro-1H-indole-2-carboxylic acid {(S)-1-[(6-amino-2-methyl-pyridin-3-ylmethyl)-carbamoyl]-2-naphthalen-1-yl-ethyl}-amide], for which the IC50 turned out to be 119 nM.

As for `Cn1c(C(=O)N[C@@H](Cc2cccc3ccccc23)C(=O)NCc2ccc(N)nc2)cc2ccccc21` [Example 306, 1-Methyl-1H-indole-2-carboxylic acid {(S)-1-[(6-amino-pyridin-3-ylmethyl)-carbamoyl]-2-naphthalen-1-yl-ethyl}-amide], 163 nM corresponded to half-maximal inhibition (IC50).

Compound `Nc1ccc(CNC(=O)[C@H](Cc2cccc(C(F)(F)F)c2)NC(=O)c2cc3ccccc3[nH]2)cn1` [Example 307, 1H-Indole-2-carboxylic acid [(S)-1-[(6-amino-pyridin-3-ylmethyl)-carbamoyl]-2-(3-trifluoromethyl-phenyl)-ethyl]-amide] gave an IC50 of 22 nM.

In turn, `COc1ccc2[nH]c(C(=O)N[C@@H](Cc3cccc(C(F)(F)F)c3)C(=O)NCc3ccc(N)nc3)cc2c1` [Example 308, 5-Methoxy-1H-indole-2-carboxylic acid [(S)-1-[(6-amino-pyridin-3-ylmethyl)-carbamoyl]-2-(3-trifluoromethyl-phenyl)-ethyl]-amide] displayed an IC50 of 15.6 nM.

`Cc1nc(N)ccc1CNC(=O)[C@H](Cc1cccc(C(F)(F)F)c1)NC(=O)c1cc2ccccc2[nH]1` [Example 309, 1H-Indole-2-carboxylic acid [(S)-1-[(6-amino-2-methyl-pyridin-3-ylmethyl)-carbamoyl]-2-(3-trifluoromethyl-phenyl)-ethyl]-amide] yielded an IC50 of 42.3 nM.

Take `COc1ccc2[nH]c(C(=O)N[C@@H](Cc3cccc(C(F)(F)F)c3)C(=O)NCc3ccc(N)nc3C)cc2c1` [Example 310, 5-Methoxy-1H-indole-2-carboxylic acid [(S)-1-[(6-amino-2-methyl-pyridin-3-ylmethyl)-carbamoyl]-2-(3-trifluoromethyl-phenyl)-ethyl]-amide]: half-maximal inhibition (IC50) was put at 48.9 nM.

The compound `Nc1ccc(CNC(=O)[C@H](Cc2cccc(F)c2)NC(=O)c2cc3ccccc3[nH]2)cn1` [Example 311, 1H-Indole-2-carboxylic acid [(S)-1-[(6-amino-pyridin-3-ylmethyl)-carbamoyl]-2-(3-fluoro-phenyl)-ethyl]-amide] registered an IC50 of 46.5 nM.
